Reference: the supplement of paper PMC11061612

Tests used:
Experiment in all cases: Bliss excess, mean over the matrix (fraction); higher = more synergy
[1] = test system: SK-GT-2 (Gastric Carcinoma)
Procedure, shortened: (§1)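 Bliss excess equals the observed combination effect minus the expected value EA + EB − EA·EB, where EA and EB are the effects of each agent alone. Combination Emax is the second-highest inhibition within the matrix. Inhibition was scaled from CellTiter-Glo 2.0 luminescence, with 0 set by vehicle wells and 1 by blank wells, after 72 hours of two-drug dosing of cells plated in 1536-well plates.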

[2] = test system: HCC1187 (Breast Carcinoma)
Procedure, shortened: as §1

SJSA-1 (Osteosarcoma) = test system: SJSA-1 (Osteosarcoma)
Procedure, shortened: as §1

[3] = test system: KMS-12-BM (Plasma Cell Myeloma)
Procedure, shortened: as §1

[4] = test system: VMRC-RCZ (Kidney Carcinoma)
Procedure, shortened: as §1

RD (Rhabdomyosarcoma) = test system: RD (Rhabdomyosarcoma)
Procedure, shortened: as §1

[5] = test system: SNU-398 (Hepatocellular Carcinoma)
Procedure, shortened: as §1

M059J (Glioblastoma) = test system: M059J (Glioblastoma)
Procedure, shortened: as §1

[6] = test system: CHSA8926 (Chondrosarcoma)
Procedure, shortened: as §1

[7] = test system: ST486 (Burkitt's Lymphoma)
Procedure, shortened: as §1

[8] = test system: MOLM-13 (Acute Myeloid Leukemia)
Procedure, shortened: as §1

[9] = test system: JHH-4 (Hepatocellular Carcinoma)
Procedure, shortened: as §1

[10] = test system: NCI-H3122 (Lung Adenocarcinoma)
Procedure, shortened: as §1

[11] = test system: DMS-114 (Small Cell Lung Carcinoma)
Procedure, shortened: as §1

[12] = test system: H9 (T-Cell Non-Hodgkin's Lymphoma)
Procedure, shortened: as §1

[13] = test system: HCC1419 (Breast Carcinoma)
Procedure, shortened: as §1

[14] = test system: NCI-H526 (Small Cell Lung Carcinoma)
Procedure, shortened: as §1

[15] = test system: CW-2 (Colorectal Carcinoma)
Procedure, shortened: as §1

[16] = test system: DAN-G (Pancreatic Carcinoma)
Procedure, shortened: as §1

[17] = test system: NCCIT (Other Solid Carcinomas)
Procedure, shortened: as §1

Structure (SMILES)	Bliss excess [1]	Bliss excess [2]	Bliss excess (SJSA-1 (Osteosarcoma))	Bliss excess [3]	Bliss excess [4]	Bliss excess (RD (Rhabdomyosarcoma))	Bliss excess [5]	Bliss excess (M059J (Glioblastoma))	Bliss excess [6]	Bliss excess [7]	Bliss excess [8]	Bliss excess [9]	Bliss excess [10]	Bliss excess [11]	Bliss excess [12]	Bliss excess [13]	Bliss excess [14]	Bliss excess [15]	Bliss excess [16]	Bliss excess [17]
C[C@@H](c1ccc2nccn2c1)n1nnc2ncc(-c3cnn(C)c3)nc21 [Savolitinib] + Cc1c2c(nn1C)CSCc1cc(n(C)n1)CSc1cc(c3ccccc3c1)OCCCc1c(C(=O)O)n(C)c3c-2c(Cl)ccc13 [AZD5991] (first compound max 1 µM, 7x7, partner max 1 µM)	-0.0274	-0.0038	-0.0714	-0.0168	-0.0297	-0.0177	-0.0697	-0.0289	0.0233	-0.0159	-0.0112	-0.0082	-0.0562	-0.0755	0.0005	0.0448	-0.025	-0.0263	-0.0434	-0.0528
Cn1cnc2c(F)c(Nc3ccc(Br)cc3Cl)c(C(=O)NOCCO)cc21 [Selumetinib] + CC(C)n1c(=O)n(C)c2cnc3cc(F)c(-c4ccc(OCCCN5CCCCC5)nc4)cc3c21 [AZD1390] (first compound max 10 µM, 7x7, partner max 0.3 µM)	-0.0423	0.0068	-0.042	0.0032	-0.0387	-0.0405	-0.053	-0.0375	-0.0477	-0.0391	-0.0306	-0.0444	0.0111	-0.0191	-0.0033	-0.0426	-0.0186	-0.0383	-0.0484	-0.041
COc1nnc2ccc(N3CCC(c4ccc(OCCN5CCN(C)C(=O)[C@H]5C)cc4)CC3)nn12 [AZD5153] + CN(CC[C@H](CSC1=CC=CC=C1)NC2=C(C=C(C=C2)S(=O)(=O)NC(=O)C3=CC=C(C=C3)N4CCC(CC4)[C@H](C5=CC=CC=C5C6=CC=C(C=C6)Cl)O)S(=O)(=O)C(F)(F)F)CCO [AZD4320] (first compound max 1 µM, 7x7, partner max 1 µM)	0.0412	0.0165		0.0143		0.0526	-0.0093		-0.0781		0.0205	0.0556			-0.0291	-0.0403			0.0358	
C[C@@H](c1ccc2nccn2c1)n1nnc2ncc(-c3cnn(C)c3)nc21 [Savolitinib] + CN(CC[C@H](CSC1=CC=CC=C1)NC2=C(C=C(C=C2)S(=O)(=O)NC(=O)C3=CC=C(C=C3)N4CCC(CC4)[C@H](C5=CC=CC=C5C6=CC=C(C=C6)Cl)O)S(=O)(=O)C(F)(F)F)CCO [AZD4320] (first compound max 1 µM, 7x7, partner max 1 µM)	-0.0294	-0.0091		-0.0005		-0.0348	-0.0665		-0.0241		0.0288	-0.0309			-0.0425	-0.0736			-0.0378	
Cc1c2c(nn1C)CSCc1cc(n(C)n1)CSc1cc(c3ccccc3c1)OCCCc1c(C(=O)O)n(C)c3c-2c(Cl)ccc13 [AZD5991] + Cc1cc2ncnn2cc1Nc1ncc2c(n1)n(C1CCOCC1)c(=O)n2C [AZD7648] (first compound max 1 µM, 7x7, partner max 10 µM)	0.0164	-0.0299	0.0585	-0.0033	-0.0405	-0.049	-0.0125	-0.0726	-0.0376	-0.053	-0.0165	-0.0217	-0.0563	0.0346		-0.0196	-0.0042	0.0242	-0.0402	-0.0494
Cc1c2c(nn1C)CSCc1cc(n(C)n1)CSc1cc(c3ccccc3c1)OCCCc1c(C(=O)O)n(C)c3c-2c(Cl)ccc13 [AZD5991] + C1CN(CCC1(C(=O)N[C@@H](CCO)C2=CC=C(C=C2)Cl)N)C3=NC=NC4=C3C=CN4 [Capivasertib] (first compound max 1 µM, 7x7, partner max 3 µM)	-0.0049	-0.0023	-0.0248	0.0127	-0.0347	0.0465	0.034	-0.101	0.0131		-0.002	0.0018	0.0144	0.0696	-0.0514	0.0163	0.0139	0.0132	-0.0535	0.076
CN(CCO)CC[C@H](CSc1ccccc1)Nc1ccc(S(=O)(=O)NC(=O)c2ccc(N3CCC([C@@H](O)c4ccccc4-c4ccc(Cl)cc4)CC3)cc2)cc1S(=O)(=O)C(F)(F)F [AZD4320] + C[C@@H]1COCCN1C2=NC(=NC(=C2)C3(CC3)[S@](=N)(=O)C)C4=C5C=CNC5=NC=C4 [AZD6738] (first compound max 1 µM, 7x7, partner max 10 µM)	0.0109	-0.0209	-0.113	0.0012	-0.0331	-0.0334	-0.0452		-0.011	-0.0502	0.0272	-0.0657	-0.0965	0.0073	-0.0283	-0.0752	-0.0302	-0.0321	-0.0315	-0.0331
